Assay results as given in ChEMBL document CHEMBL1201862, “PubChem BioAssay data set” (2004).
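Protocol summary: plate cells (96-well), add compound at 5 concentrations, incubate 48 h, interpolate endpoints linearly. GI50: concentration for 50% inhibition of growth.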 Activity calls are given as the source filed them. Cut-off read from the data, not from the text of the source: active = GI50 up to about 1.1 µM and inactive = higher.

Assays:
Test in all cases: NCI anticancer screen, dose series, 48 h
[1] = system: HCT-116
[2] = system: HCT-15
[3] = system: TK-10
[4] = system: 786-0
[5] = system: SF-295
[6] = system: PC-3
[7] = system: Malme-3M
[8] = system: SW-620
[9] = system: HL-60
[10] = system: HOP-92
[11] = system: RPMI-8226
[12] = system: HCC 2998
[13] = system: BT-549
[14] = system: SK-MEL-5
[15] = system: MOLT-4
[16] = system: M14
[17] = system: OVCAR-3
[18] = system: OVCAR-4
[19] = system: SF-539

Structure (SMILES)	GI50 [1]	GI50 [2]	GI50 [3]	GI50 [4]	GI50 [5]	GI50 [6]	GI50 [7]	GI50 [8]	GI50 [9]	GI50 [10]	GI50 [11]	GI50 [12]	GI50 [13]	GI50 [14]	GI50 [15]	GI50 [16]	GI50 [17]	GI50 [18]	GI50 [19]
CC(C)=CCC[C@@H](C)C1=C(Nc2ccccc2)C(=O)C(C)=C(O)C1=O	1.53 µM (inactive)	0.875 µM	4.29 µM (inactive)	4.75 µM (inactive)	1.85 µM (inactive)	3.63 µM (inactive)	4.2 µM (inactive)	3.78 µM (inactive)	0.303 µM (active)	2.87 µM (inactive)	9.66 µM (inactive)	5.92 µM (inactive)	3.67 µM (inactive)	2 µM (inactive)	0.719 µM (active)	3.13 µM (inactive)	2.21 µM (inactive)	6.62 µM (inactive)	
Oc1ccc(O)c(Sc2nnc(CCCCCCCCc3nnc(Sc4cc(O)ccc4O)o3)o2)c1	18.1 µM (inactive)	88.7 µM	> 100 µM (inactive)	19 µM (inactive)	> 100 µM (inactive)	> 100 µM (inactive)	57.3 µM (inactive)	31.3 µM (inactive)		24 µM (inactive)	23.1 µM (inactive)	75.5 µM (inactive)	74.8 µM (inactive)	> 100 µM (inactive)	49.5 µM (inactive)	> 100 µM (inactive)		33.1 µM (inactive)	
CC1=NN(c2ccccc2)C2(C1)C(Cl)C(=O)N2c1nc2ccccc2s1 (stereo unspecified)	21.5 µM (inactive)	29.9 µM	> 100 µM (inactive)	31.9 µM (inactive)	28.8 µM (inactive)	37.1 µM (inactive)	42.2 µM (inactive)	29.9 µM (inactive)	21.1 µM (inactive)	73.6 µM (inactive)	18.1 µM (inactive)	60.4 µM (inactive)	34.1 µM (inactive)	20.8 µM (inactive)	20.7 µM (inactive)	33.2 µM (inactive)	15.8 µM (inactive)	85.1 µM (inactive)	
CC1=C(C(=O)OC23CC4CC(CC(C4)C2)C3)C(c2ccccc2OC(F)F)C(C(=O)OC23CC4CC(CC(C4)C2)C3)=C(C)N1 (stereo unspecified)	> 100 µM (inactive)	> 100 µM		> 100 µM (inactive)	> 100 µM (inactive)		> 100 µM (inactive)	> 100 µM (inactive)	> 100 µM (inactive)	> 100 µM (inactive)	> 100 µM (inactive)	> 100 µM (inactive)	> 100 µM (inactive)	> 100 µM (inactive)	63.7 µM (inactive)	> 100 µM (inactive)	50.5 µM (inactive)	> 100 µM (inactive)	> 100 µM (inactive)
CCOC(=O)CNC(=O)CNC(=O)CNC(=O)CNNc1c(OCc2ccccc2)c(=O)c1=O	> 100 µM (inactive)	> 100 µM	> 100 µM (inactive)	> 100 µM (inactive)		> 100 µM (inactive)	> 100 µM (inactive)	> 100 µM (inactive)			> 100 µM (inactive)	> 100 µM (inactive)	> 100 µM (inactive)	> 100 µM (inactive)	> 100 µM (inactive)	> 100 µM (inactive)	> 100 µM (inactive)	> 100 µM (inactive)	
CCO/C=C(\C(=O)OC)S(=O)(=O)c1ccc(C)cc1	> 100 µM (inactive)	> 100 µM	> 100 µM (inactive)	> 100 µM (inactive)	> 100 µM (inactive)	> 100 µM (inactive)	> 100 µM (inactive)	> 100 µM (inactive)	0.0596 µM (active)	> 100 µM (inactive)	> 100 µM (inactive)	> 100 µM (inactive)		> 100 µM (inactive)	> 100 µM (inactive)	> 100 µM (inactive)	> 100 µM (inactive)	> 100 µM (inactive)	> 100 µM (inactive)
CCOC(=O)c1c(NS(=O)(=O)c2ccc(C)cc2)sc2c1CCCC2	21.4 µM (inactive)	15.9 µM	28.4 µM (inactive)	35.2 µM (inactive)	28 µM (inactive)	16.2 µM (inactive)			42.7 µM (inactive)		10.2 µM (inactive)		31.7 µM (inactive)	31.8 µM (inactive)	37.6 µM (inactive)	35.8 µM (inactive)	15 µM (inactive)		29.9 µM (inactive)
CC(=O)NC(C)c1ccc(/N=N/N2CCCC2)cc1 (stereo unspecified)	> 100 µM (inactive)	> 100 µM	> 100 µM (inactive)	> 100 µM (inactive)	> 100 µM (inactive)	> 100 µM (inactive)	> 100 µM (inactive)	> 100 µM (inactive)	27.4 µM (inactive)	> 100 µM (inactive)		> 100 µM (inactive)		> 100 µM (inactive)		> 100 µM (inactive)	> 100 µM (inactive)	> 100 µM (inactive)	> 100 µM (inactive)
NNC1=NC(=O)NC(=O)C1	> 100 µM (inactive)	> 100 µM	> 100 µM (inactive)	> 100 µM (inactive)	> 100 µM (inactive)	> 100 µM (inactive)	> 100 µM (inactive)	> 100 µM (inactive)	> 100 µM (inactive)	66.4 µM (inactive)	> 100 µM (inactive)		> 100 µM (inactive)	> 100 µM (inactive)	> 100 µM (inactive)	> 100 µM (inactive)	> 100 µM (inactive)	> 100 µM (inactive)	
CCOc1cc(C=O)c2c(ccc3ccc(OC)c(OC)c32)c1OC	36 µM (inactive)	49.7 µM	> 100 µM (inactive)	> 100 µM (inactive)	43.8 µM (inactive)	17.7 µM (inactive)	55.7 µM (inactive)		24.4 µM (inactive)	> 100 µM (inactive)	15.5 µM (inactive)	83.8 µM (inactive)	32.4 µM (inactive)	52.4 µM (inactive)	13.3 µM (inactive)	89.3 µM (inactive)	31.6 µM (inactive)	51.1 µM (inactive)	
COC(=O)C1(C(=O)OC)N=C(C)OC1c1ccoc1 (stereo unspecified)	> 100 µM (inactive)	> 100 µM	> 100 µM (inactive)	> 100 µM (inactive)	> 100 µM (inactive)	> 100 µM (inactive)		> 100 µM (inactive)	> 100 µM (inactive)	> 100 µM (inactive)	> 100 µM (inactive)	> 100 µM (inactive)	> 100 µM (inactive)	> 100 µM (inactive)	> 100 µM (inactive)	> 100 µM (inactive)	> 100 µM (inactive)	> 100 µM (inactive)	
C=CC1(c2ccc(OC)cc2)OCCCO1	> 100 µM (inactive)	> 100 µM	> 100 µM (inactive)	> 100 µM (inactive)	> 100 µM (inactive)	> 100 µM (inactive)	> 100 µM (inactive)	> 100 µM (inactive)	> 100 µM (inactive)	> 100 µM (inactive)	> 100 µM (inactive)	> 100 µM (inactive)		> 100 µM (inactive)	> 100 µM (inactive)	> 100 µM (inactive)	> 100 µM (inactive)	> 100 µM (inactive)	> 100 µM (inactive)
N#Cc1c(-c2ccccc2)cc(-c2ccc(Cl)cc2)[nH]c1=S	33.1 µM (inactive)	25.8 µM	45.9 µM (inactive)	53.3 µM (inactive)	27.1 µM (inactive)	27.1 µM (inactive)	27 µM (inactive)	28.4 µM (inactive)	45.6 µM (inactive)	65.9 µM (inactive)	29.2 µM (inactive)	31.9 µM (inactive)	41.5 µM (inactive)	17.7 µM (inactive)	28.1 µM (inactive)	38.9 µM (inactive)	38.8 µM (inactive)	42.6 µM (inactive)	
CCCCS(=O)(=O)CCC(N)P(=O)(O)O (stereo unspecified)	> 100 µM (inactive)	> 100 µM	> 100 µM (inactive)	> 100 µM (inactive)	> 100 µM (inactive)	> 100 µM (inactive)	> 100 µM (inactive)	> 100 µM (inactive)	> 100 µM (inactive)	> 100 µM (inactive)	> 100 µM (inactive)		> 100 µM (inactive)	> 100 µM (inactive)	> 100 µM (inactive)	> 100 µM (inactive)	> 100 µM (inactive)	> 100 µM (inactive)	
CSC(=S)N(C)C [CYSTOGON]	> 100 µM (inactive)	> 100 µM	> 100 µM (inactive)	> 100 µM (inactive)	> 100 µM (inactive)		> 100 µM (inactive)	> 100 µM (inactive)	> 100 µM (inactive)	> 100 µM (inactive)	> 100 µM (inactive)		> 100 µM (inactive)	> 100 µM (inactive)	> 100 µM (inactive)	> 100 µM (inactive)	> 100 µM (inactive)		> 100 µM (inactive)
COc1nc(=O)n(C2CC(F)C(CO)O2)cc1C (stereo unspecified)	> 100 µM (inactive)	> 100 µM	> 100 µM (inactive)	> 100 µM (inactive)	> 100 µM (inactive)		> 100 µM (inactive)	> 100 µM (inactive)	> 100 µM (inactive)		> 100 µM (inactive)	> 100 µM (inactive)	> 100 µM (inactive)	> 100 µM (inactive)	> 100 µM (inactive)	> 100 µM (inactive)	> 100 µM (inactive)	> 100 µM (inactive)	> 100 µM (inactive)
O=C(c1ccccc1)N(CCCCNC(=O)C(F)(F)F)CCCNC(=O)C(F)(F)F	> 100 µM (inactive)	> 100 µM	> 100 µM (inactive)	> 100 µM (inactive)	> 100 µM (inactive)		> 100 µM (inactive)	> 100 µM (inactive)	> 100 µM (inactive)	> 100 µM (inactive)	> 100 µM (inactive)	> 100 µM (inactive)	> 100 µM (inactive)	> 100 µM (inactive)	> 100 µM (inactive)	> 100 µM (inactive)		> 100 µM (inactive)	> 100 µM (inactive)
